Results as given in US20260256792A1, “TREATMENT OF CHRONIC SPONTANEOUS URTICARIA BY ADMINISTERING (R)-2-[3-[4-AMINO-3-(2-FLUORO-4-PHENOXY-PHENYL)PYRAZOLO[3,4-D]PYRIMIDIN-1-YL]PIPERIDINE-1-CARBONYL]-4-METHYL-4-[4-(OXETAN-3-YL)PIPERAZIN-1-YL]PENT-2-ENENITRILE” (priority 2023, published 2026).

Test system: moderate-to-severe chronic spontaneous urticaria (CSU)
Assay: Phase 2 CSU study: itch severity score over 7 days (ISS7)
Type: in vivo, human
Details: for Change from Baseline in ISS7 at Week 12, Mean / Change from Baseline in ISS7 at Week 12, LS Mean / Change from Baseline in ISS7 at Week 12, LS Mean Diff vs. placebo: Omalizumab-naïve population; for ISS7 change from baseline at Week 12, LS Mean / ISS7 change from baseline at Week 12, LS Mean Diff vs. placebo: ANCOVA
Text: The study comprises a 12 week, randomized, double-blind, placebo-controlled, multi-center, dose-ranging efficacy and safety phase, followed by a 40 week open label extension (OLE) phase (see FIG. 1). The study consists of three phases and an optional OLE phase. […] Clinically, CSU is characterized by the spontaneous and recurrent appearance of pruritic hives. The proposed primary endpoints were the UAS7 at Week 12 in EU and EU reference countries and the ISS7 in the US. Regardless of where a participant was from, all assessments were the same. The UAS7 score is a composite score containing both the HSS7 and the ISS7. This allowed a global assessment of the two key components of urticaria: hives and itch. […] The UAS is a validated PRO measure. […] The daily UAS scores range from 0 to 6 point/day. […] Patients were to complete the UAS using the e-diary. […] The following secondary endpoints were to be analyzed using the same approach as for the primary endpoint: • Change from baseline in UAS7 at Week 4 • Change from baseline in UAS7 at Week 12 (for US and US reference countries) • Change from baseline in ISS7 at Week 12 (except US and US reference countries) • Change from baseline in HSS7 at Week 12

[1] = 400 mg TID, Baseline ISS7 score <13
[2] = 400 mg TID, Baseline ISS7 score ≥13
[3] = 400 mg TID, Baseline Total IgE (IU/mL) <100
[4] = 400 mg TID, Baseline Total IgE (IU/mL) <300
[5] = 400 mg TID, Baseline Total IgE (IU/mL) ≥100
[6] = 400 mg TID, Baseline Total IgE (IU/mL) ≥300
[7] = 400 mg TID, Baseline UAS7 score <28
[8] = 400 mg TID, Baseline UAS7 score ≥28
[9] = 400 mg TID, Duration of disease (years) 2-10
[10] = 400 mg TID, Duration of disease (years) <2
[11] = 400 mg TID, Duration of disease (years) >10
[12] = 400 mg TID, Ethnicity Non-Hispanic
[13] = 400 mg TID, History of angioedema No
[14] = 400 mg TID, History of angioedema Yes
[15] = 400 mg TID, Race All the Others
[16] = 400 mg TID, Region Eastern Europe
[17] = 400 mg TID, Region Latin America
[18] = 400 mg TID, Region Western Countries
[19] = 400 mg TID, omalizumab-naïve population
[20] = 400 mg TID, omalizumab-naïve population with outlier removed
[21] = End of Study, 400 mg BID, Omalizumab-Naïve

CC(C)(C=C(C#N)C(=O)N1CCC[C@@H](n2nc(-c3ccc(Oc4ccccc4)cc3F)c3c(N)ncnc32)C1)N1CCN(C2COC2)CC1 [rilzabrutinib, (R)-2-[3-[4-amino-3-(2-fluoro-4-phenoxy-phenyl)pyrazolo[3,4-d]pyrimidin-1-yl]piperidine-1-carbonyl]-4-methyl-4-[4-(oxetan-3-yl)piperazin-1-yl]pent-2-enenitrile]
Change from Baseline in ISS7 at Week 12, Mean (400 mg TID, Baseline H1-antihistamines dose 2 to 4-fold standard dose): −12.76 | Change from Baseline in ISS7 at Week 12, LS Mean [1]: −3.73 | Change from Baseline in ISS7 at Week 12, LS Mean Diff vs. placebo [1]: −1.01 | Change from Baseline in ISS7 at Week 12, Mean [1]: −3.50 | Change from Baseline in ISS7 at Week 12, LS Mean [2]: −10.18 | Change from Baseline in ISS7 at Week 12, LS Mean Diff vs. placebo [2]: −4.45 | Change from Baseline in ISS7 at Week 12, Mean [2]: −10.79 | Change from Baseline in ISS7 at Week 12, LS Mean [3]: −9.19 | Change from Baseline in ISS7 at Week 12, LS Mean Diff vs. placebo [3]: −4.95 | Change from Baseline in ISS7 at Week 12, Mean [3]: −11.17 | Change from Baseline in ISS7 at Week 12, LS Mean [4]: −9.55 | Change from Baseline in ISS7 at Week 12, LS Mean Diff vs. placebo [4]: 5.04 | Change from Baseline in ISS7 at Week 12, LS Mean [5]: −9.13 | Change from Baseline in ISS7 at Week 12, LS Mean Diff vs. placebo [5]: −3.10 | Change from Baseline in ISS7 at Week 12, Mean [5]: −9.49 | Change from Baseline in ISS7 at Week 12, LS Mean [6]: −8.12 | Change from Baseline in ISS7 at Week 12, LS Mean Diff vs. placebo [6]: −1.58 | Change from Baseline in ISS7 at Week 12, Mean [6]: 8.74 | Change from Baseline in ISS7 at Week 12, LS Mean [7]: −6.43 | Change from Baseline in ISS7 at Week 12, LS Mean Diff vs. placebo [7]: −3.26 | Change from Baseline in ISS7 at Week 12, Mean [7]: −7.61 | Change from Baseline in ISS7 at Week 12, LS Mean [8]: −10.62 | Change from Baseline in ISS7 at Week 12, LS Mean Diff vs. placebo [8]: −4.02 | Change from Baseline in ISS7 at Week 12, Mean [8]: −11.99 | Change from Baseline in ISS7 at Week 12, LS Mean [9]: −8.84 | Change from Baseline in ISS7 at Week 12, LS Mean Diff vs. placebo [9]: −1.82 | Change from Baseline in ISS7 at Week 12, Mean [9]: −9.37 | Change from Baseline in ISS7 at Week 12, LS Mean [10]: −9.77 | Change from Baseline in ISS7 at Week 12, LS Mean Diff vs. placebo [10]: −6.12 | Change from Baseline in ISS7 at Week 12, Mean [10]: −10.93 | Change from Baseline in ISS7 at Week 12, LS Mean [11]: −9.33 | Change from Baseline in ISS7 at Week 12, LS Mean Diff vs. placebo [11]: −5.64 | Change from Baseline in ISS7 at Week 12, Mean [11]: −11.00 | Change from Baseline in ISS7 at Week 12, LS Mean (400 mg TID, Ethnicity Hispanic): 7.36 | Change from Baseline in ISS7 at Week 12, LS Mean Diff vs. placebo (400 mg TID, Ethnicity Hispanic): −0.35 | Change from Baseline in ISS7 at Week 12, Mean (400 mg TID, Ethnicity Hispanic): −8.13 | Change from Baseline in ISS7 at Week 12, LS Mean [12]: −10.16 | Change from Baseline in ISS7 at Week 12, LS Mean Diff vs. placebo [12]: −5.69 | Change from Baseline in ISS7 at Week 12, Mean [12]: −11.83 | Change from Baseline in ISS7 at Week 12, Mean (400 mg TID, Gender Male): −7.08 | Change from Baseline in ISS7 at Week 12, LS Mean [13]: −9.56 | Change from Baseline in ISS7 at Week 12, LS Mean Diff vs. placebo [13]: −4.22 | Change from Baseline in ISS7 at Week 12, Mean [13]: −10.86 | Change from Baseline in ISS7 at Week 12, LS Mean [14]: −8.24 | Change from Baseline in ISS7 at Week 12, LS Mean Diff vs. placebo [14]: −2.99 | Change from Baseline in ISS7 at Week 12, Mean [14]: −9.01 | ISS7 at Week 12, Mean (400 mg TID, ITT population): 5.59 | ISS7 at Week 12, Median (400 mg TID, ITT population): 6.00 | ISS7 change from baseline at Week 12, Mean (400 mg TID, ITT population): −10.68 | ISS7 change from baseline at Week 12, Median (400 mg TID, ITT population): −10.67 | LS mean change from baseline in ISS7 at Week 12 (400 mg TID, ITT population): −9.58 points | ISS7 change from baseline at Week 12, LS Mean (400 mg TID, ITT population): −9.58 points | ISS7 change from baseline at Week 12, LS Mean Diff vs. placebo (400 mg TID, ITT population): −3.26 | decrease from baseline in ISS7 (400 mg TID, ITT population, belongs to LS mean change −6.65): 40.41% | LS mean change in ISS7 from baseline (see Table 29) (400 mg TID, ITT population, following one week of treatment): −6.65 points | Change from Baseline in ISS7 at Week 12, LS Mean [15]: −8.74 | Change from Baseline in ISS7 at Week 12, LS Mean Diff vs. placebo [15]: −5.27 | Change from Baseline in ISS7 at Week 12, Mean [15]: −8.74 | Change from Baseline in ISS7 at Week 12, LS Mean (400 mg TID, Race White): −9.18 | Change from Baseline in ISS7 at Week 12, LS Mean Diff vs. placebo (400 mg TID, Race White): −3.17 | Change from Baseline in ISS7 at Week 12, Mean (400 mg TID, Race White): −10.88 | Change from Baseline in ISS7 at Week 12, LS Mean (400 mg TID, Region Asia): −8.33 | Change from Baseline in ISS7 at Week 12, LS Mean Diff vs. placebo (400 mg TID, Region Asia): −4.87 | Change from Baseline in ISS7 at Week 12, Mean (400 mg TID, Region Asia): −8.21 | Change from Baseline in ISS7 at Week 12, LS Mean [16]: −14.02 | Change from Baseline in ISS7 at Week 12, LS Mean Diff vs. placebo [16]: −1.35 | Change from Baseline in ISS7 at Week 12, Mean [16]: −13.17 | Change from Baseline in ISS7 at Week 12, LS Mean [17]: −6.07 | Change from Baseline in ISS7 at Week 12, LS Mean Diff vs. placebo [17]: 0.52 | Change from Baseline in ISS7 at Week 12, Mean [17]: −7.34 | Change from Baseline in ISS7 at Week 12, LS Mean [18]: 9.58 | Change from Baseline in ISS7 at Week 12, LS Mean Diff vs. placebo [18]: −5.03 | Change from Baseline in ISS7 at Week 12, Mean [18]: −11.79 | ISS7 at Week 12, Mean [19]: 5.77 | ISS7 at Week 12, Median [19]: 7.00 | ISS7 change from baseline at Week 12, Mean [19]: −10.27 | ISS7 change from baseline at Week 12, Median [19]: −10.33 | LS mean change from baseline in ISS7 at Week 12 [19]: −9.21 | LS mean reduction in ISS7 (see Table 30) [19]: −6.13 | ISS7 at Week 12, Mean [20]: 5.77 | ISS7 at Week 12, Median [20]: 7.00 | ISS7 change from baseline at Week 12, Mean [20]: −10.27 | ISS7 change from baseline at Week 12, Median [20]: −10.33 | ISS7 change from baseline at Week 12, LS Mean [20]: −9.57 points | ISS7 change from baseline at Week 12, LS Mean Diff vs. placebo [20]: −3.86 | LS mean change from baseline in ISS7 at Week 12 (400 mg TID, omalizumab-naïve population, outlier removed): −9.57 | ISS7 change from baseline at Week 12, LS Mean [19]: −9.21 points | ISS7 change from baseline at Week 12, LS Mean Diff vs. placebo [19]: −3.44 | ISS7 Mean (SD) [21]: 7.80 (8.76) | ISS7 Median [21]: 7.00 | ISS7 Mean (SD) (End of Study, 400 mg QPM, Omalizumab-Naïve): 5.74 (8.03)
